Results taken from PubChem BioAssay AID210 (DTP/NCI, 2004).
Several values for one entry are separate records, joined by “and”; a condition that tells them apart may be missing. Identical values can stand only once. Inconclusive results and toxic doses are left out.

Tested on: CD2F1 mice, ip Colon 26 adenocarcinoma, median survival T/C
Experiment: NCI In Vivo Anticancer Drug Screen. Data for tumor model Colon 26 Adenocarcinoma (intraperitoneal) in CD2F1 (CDF1) mice
Conditions: endpoint: median survival time, higher = longer survival
Procedure: The antitumor activity of compounds was measured in mice bearing transplantable tumors. Survival or tumor size were measured and the results are expressed as the measurement made in the treated group (T) divided by the measurement made in the vehicle treated control group (C). The tumor model used in this assay is Colon 26 Adenocarcinoma (intraperitoneal) in CD2F1 (CDF1) mice

[1] = dose: 25.0 mg/kg/injection, schedule: Q04DX003 (ip), vehicle: saline with Tween-80
[2] = dose: 50.0 mg/kg/injection, schedule: Q04DX003 (ip), vehicle: saline with Tween-80
[3] = dose: 100.0 mg/kg/injection, schedule: Q04DX003 (ip), vehicle: saline with Tween-80
[4] = dose: 200.0 mg/kg/injection, schedule: Q04DX003 (ip), vehicle: saline with Tween-80
[5] = dose: 400.0 mg/kg/injection, schedule: Q04DX003 (ip), vehicle: saline with Tween-80
[6] = dose: 50.0 mg/kg/injection, schedule: Q04DX003 (ip), vehicle: Klucel (hydroxypropylcellulose) (HPC)
[7] = dose: 25.0 mg/kg/injection, schedule: Q04DX003 (ip), vehicle: saline
[8] = dose: 50.0 mg/kg/injection, schedule: Q04DX003 (ip), vehicle: saline

In the case of `CC(=O)O[C@@H]1[C@@H](O)C2=C3[C@]4(C)[C@@H]1C(C)(C)C(=O)C[C@@H]4[C@]3(O)[C@H](OC(C)=O)[C@@]1(C[C@@H]1C)C2=O`, the T/C (dose: 6.25 mg/kg/injection, schedule: Q04DX003 (ip), vehicle: distilled water + Tween-80) is reported as 94 % of control, the T/C (dose: 6.25 mg/kg/injection, schedule: Q04DX003 (ip), vehicle: saline with Tween-80) is reported as 106 % of control and the T/C (dose: 12.5 mg/kg/injection, schedule: Q04DX003 (ip), vehicle: distilled water + Tween-80) is reported as 106 % of control. The T/C (dose: 25.0 mg/kg/injection, schedule: Q04DX003 (ip), vehicle: distilled water + Tween-80) was 106 % of control, the T/C [1] was 99 % of control and the T/C (dose: 50.0 mg/kg/injection, schedule: Q04DX003 (ip), vehicle: distilled water + Tween-80) was 100 % of control. For the same compound, the T/C [2] was 106 % of control and the T/C [3] was 106 % of control.

For `Nc1ncnc2c1ccn2C1OC(CO)C(O)C1O` (configuration not stated), the T/C (dose: 0.5 mg/kg/injection, schedule: Q04DX003 (ip), vehicle: Klucel (hydroxypropylcellulose) (HPC)) was 98 % of control, the T/C (dose: 1.0 mg/kg/injection, schedule: Q04DX003 (ip), vehicle: Klucel (hydroxypropylcellulose) (HPC)) was 119 % of control and the T/C (dose: 2.0 mg/kg/injection, schedule: Q04DX003 (ip), vehicle: Klucel (hydroxypropylcellulose) (HPC)) was 118 % of control. For the same compound, the T/C (dose: 4.0 mg/kg/injection, schedule: Q04DX003 (ip), vehicle: Klucel (hydroxypropylcellulose) (HPC)) was 115 % of control.

In the case of `Nc1ccc(Cl)cc1N`, the T/C (dose: 12.5 mg/kg/injection, schedule: Q04DX003 (ip), vehicle: saline + Tween-80 + alcohol) is reported as 96 % of control, the T/C (dose: 12.5 mg/kg/injection, schedule: Q04DX003 (ip), vehicle: saline with Tween-80) is reported as 100 % of control and the T/C (dose: 25.0 mg/kg/injection, schedule: Q04DX003 (ip), vehicle: saline + Tween-80 + alcohol) is reported as 98 % of control. The T/C [1] was 100 % of control, the T/C (dose: 50.0 mg/kg/injection, schedule: Q04DX003 (ip), vehicle: saline + Tween-80 + alcohol) was 102 % of control and the T/C [2] was 100 % of control. For the same compound, the T/C (dose: 100.0 mg/kg/injection, schedule: Q04DX003 (ip), vehicle: saline + Tween-80 + alcohol) was 104 % of control, the T/C [3] was 102 % of control and the T/C (dose: 200.0 mg/kg/injection, schedule: Q04DX003 (ip), vehicle: saline + Tween-80 + alcohol) was 107 % of control. The T/C [4] was 106 % of control and the T/C [5] was 109 % of control.

`Nc1nc(=S)c2ncn(C3CC(O)C(CO)O3)c2[nH]1` (configuration not stated) was tested, and the T/C (dose: 4.0 mg/kg/injection, schedule: Q04DX002 (ip), vehicle: saline with Tween-80) was 121 % of control, the T/C (dose: 8.0 mg/kg/injection, schedule: Q04DX002 (ip), vehicle: saline with Tween-80) was 106 % of control and the T/C (dose: 10.0 mg/kg/injection, schedule: Q04DX003 (ip), vehicle: saline with Tween-80) was 177 % of control. For the same compound, the T/C (dose: 16.0 mg/kg/injection, schedule: Q04DX002 (ip), vehicle: saline with Tween-80) was 106 % of control and 119 % of control, the T/C (dose: 32.0 mg/kg/injection, schedule: Q04DX002 (ip), vehicle: saline with Tween-80) was 102 % of control and the T/C (dose: 40.0 mg/kg/injection, schedule: Q04DX003 (ip), vehicle: saline with Tween-80) was 157 % of control. The T/C (dose: 64.0 mg/kg/injection, schedule: Q04DX002 (ip), vehicle: saline with Tween-80) was 124 % of control, the T/C (dose: 128.0 mg/kg/injection, schedule: Q04DX002 (ip), vehicle: saline with Tween-80) was 116 % of control and the T/C (dose: 256.0 mg/kg/injection, schedule: Q04DX002 (ip), vehicle: saline with Tween-80) was 109 % of control.

For `CN(C)CCCNc1cccc2c1C(=O)c1c(NCCCN(C)C)cccc1C2=O`, the T/C (dose: 4.0 mg/kg/injection, schedule: Q01DX009 (ip), vehicle: saline) was 111 % of control, the T/C (dose: 8.0 mg/kg/injection, schedule: Q01DX009 (ip), vehicle: saline) was 97 % of control and the T/C (dose: 16.0 mg/kg/injection, schedule: Q01DX009 (ip), vehicle: saline) was 95 % of control. The T/C (dose: 32.0 mg/kg/injection, schedule: Q01DX009 (ip), vehicle: saline) was 89 % of control and the T/C (dose: 64.0 mg/kg/injection, schedule: Q01DX009 (ip), vehicle: saline) was 87 % of control.

For `OC(CBr)C(O)C(O)C(O)CBr` (configuration not stated), the T/C [1] was 114 % of control, the T/C [6] was 107 % of control and the T/C [2] was 102 % of control. The T/C (dose: 100.0 mg/kg/injection, schedule: Q04DX003 (ip), vehicle: Klucel (hydroxypropylcellulose) (HPC)) was 117 % of control, the T/C [3] was 96 % of control and the T/C [4] was 102 % of control. For the same compound, the T/C [5] was 114 % of control and the T/C (dose: 800.0 mg/kg/injection, schedule: Q04DX003 (ip), vehicle: Klucel (hydroxypropylcellulose) (HPC)) was 163 % of control.

In the case of `O=C1c2ccccc2C(=O)c2c(NCCCNCCO)ccc(NCCCNCCO)c21`, the T/C (dose: 16.0 mg/kg/injection, schedule: Q01DX009 (ip), vehicle: acid diluted with saline) is reported as 107 % of control, the T/C (dose: 32.0 mg/kg/injection, schedule: Q01DX009 (ip), vehicle: acid diluted with saline) is reported as 111 % of control and the T/C (dose: 64.0 mg/kg/injection, schedule: Q01DX009 (ip), vehicle: acid diluted with saline) is reported as 123 % of control.

With `NCCc1ccc(O)c(O)c1` the T/C [7] was 94 % of control and the T/C [8] was 109 % of control.

With `O=C(CCCN1CCC(O)(c2cccc(C(F)(F)F)c2)CC1)c1ccc(F)cc1` the T/C (dose: 3.12 mg/kg/injection, schedule: Q04DX003 (ip), vehicle: Klucel (hydroxypropylcellulose) (HPC)) was 94 % of control, the T/C (dose: 6.25 mg/kg/injection, schedule: Q04DX003 (ip), vehicle: Klucel (hydroxypropylcellulose) (HPC)) was 95 % of control and the T/C (dose: 12.5 mg/kg/injection, schedule: Q04DX003 (ip), vehicle: Klucel (hydroxypropylcellulose) (HPC)) was 99 % of control. For the same compound, the T/C (dose: 25.0 mg/kg/injection, schedule: Q04DX003 (ip), vehicle: Klucel (hydroxypropylcellulose) (HPC)) was 97 % of control and the T/C [6] was 105 % of control.

For `CN(C)CCNc1cccc2c1C(=O)c1cccc(NCCN(C)C)c1C2=O`, the T/C (dose: 1.88 mg/kg/injection, schedule: Q01DX009 (ip), vehicle: saline) was 103 % of control, the T/C (dose: 3.75 mg/kg/injection, schedule: Q01DX009 (ip), vehicle: saline) was 108 % of control and the T/C (dose: 7.5 mg/kg/injection, schedule: Q01DX009 (ip), vehicle: saline) was 99 % of control. For the same compound, the T/C (dose: 15.0 mg/kg/injection, schedule: Q01DX009 (ip), vehicle: saline) was 113 % of control.

For `Cc1cn(C2CC(O)C(CO)O2)c(=O)[nH]c1=O` (configuration not stated), the T/C (dose: 12.5 mg/kg/injection, schedule: Q04DX003 (ip), vehicle: saline) was 98 % of control, the T/C [7] was 98 % of control and the T/C [8] was 98 % of control. For the same compound, the T/C (dose: 64.0 mg/kg/injection, schedule: Q04DX002 (ip), vehicle: suspension in saline) was 101 % of control, the T/C (dose: 100.0 mg/kg/injection, schedule: Q04DX003 (ip), vehicle: saline) was 96 % of control and 100 % of control and the T/C (dose: 128.0 mg/kg/injection, schedule: Q04DX002 (ip), vehicle: saline) was 88 % of control. For the same compound, the T/C (dose: 128.0 mg/kg/injection, schedule: Q04DX002 (ip), vehicle: suspension in saline) was 100 % of control, the T/C (dose: 200.0 mg/kg/injection, schedule: Q04DX003 (ip), vehicle: saline) was 99 % of control and 100 % of control and the T/C (dose: 256.0 mg/kg/injection, schedule: Q04DX002 (ip), vehicle: suspension in saline) was 94 % of control. The T/C (dose: 400.0 mg/kg/injection, schedule: Q04DX003 (ip), vehicle: saline) was 116 % of control and 98 % of control, the T/C (dose: 512.0 mg/kg/injection, schedule: Q04DX002 (ip), vehicle: suspension in saline) was 94 % of control and the T/C (dose: 1024.0 mg/kg/injection, schedule: Q04DX002 (ip), vehicle: saline) was 92 % of control. The T/C (dose: 1024.0 mg/kg/injection, schedule: Q04DX002 (ip), vehicle: suspension in saline) was 95 % of control.
